Columns and labels:
[1] = Body weight in diet-induced obesity (DIO) mice, 7 days treatment; type: in vivo; conditions: s.c. once daily
Procedure: C57BL6J male mice, in the following referred to as diet-induced obesity (DIO) mice, were maintained on a high-fat diet (58% energy from fat) and had, for each study, an average body weight of more than 45 gram prior to study start. Mice were either housed individually or double-housed. The mice were maintained on a 12 h dark-light cycle at 21-23° C. Compounds were administered subcutaneously once daily (between 2 pm-5 pm) and food intake (FI) and body weight (BW) measured at the corresponding time. For body composition, measures of fat and lean mass were performed prior to the study (1-3 days prior to study start) and on the final day of the study using an MRI scanner (EchoMRI). The group of mice injected with a vehicle (saline) served as the control group.

[2] = background, Myers et al. Science 2017; cited from earlier work

Row | Structure (SMILES) | reduction in body weight (BW %) compared to control group ([1]; FIG. 9, conjugate 100 nmol/kg or equimolar doses) [%] | adverse effect halting use of the compound [2] | reduction in body weight percentage (BW %) ([1]; FIG. 3, conjugate 100 nmol/kg or equimolar doses) [%]
1 | NC(=O)c1ncn([C@@H]2O[C@H](CO)[C@@H](O)[C@H]2O)c1N [AICAR, 5-Aminoimidazole-4-carboxamide 1-β-D-ribofuranoside, reference compound] | ~4 | – | –
2 | O[C@@H]1CO[C@H]2[C@@H]1OC[C@H]2Oc1nc2c(Cl)c(-c3ccc(-c4ccccc4)cc3)cnc2[nH]1 [MK-8722, (3R,3aR,6R,6aR)-6-((6-([1,1′-biphenyl]-4-yl)-7-chloro-3H-imidazo[4,5-b]pyridin-2-yl)oxy)hexahydrofuro[3,2-b]furan-3-ol, reference compound] | – | induction of cardiac hypertrophy | ~4
